Assay results as given in US20090312340A1 (priority 2007, published 2009).

Key:
[1] = system: patients with non-ST elevation acute coronary syndrome; assay: MERLIN-TIMI 36: Seattle Angina Questionnaire scores at 4 months; format: in vivo, human
Excerpt: The MERLIN-TIMI 36 secondary efficacy endpoint (ITT) Seattle Angina Questionnaire scores at 4 months for anginal frequency scale are shown in Table 16 below, and scores for physical limitation scale are shown in Table 17 below.

[2] = system: patients with non-ST elevation acute coronary syndrome; assay: MERLIN-TIMI 36: ischemia on Holter / continuous ECG (CECG); format: in vivo, human; details: >72 hours after randomization, ranolazine vs placebo
Experimental: At randomization, 6355 patients (99%) had 3-lead CECG monitoring initiated (median duration 6.9 days). The primary CECG endpoint was the rate of ST dep>1 mm from baseline lasting >1 minute with heart rate at onset <100 bpm. Exploratory analyses using ST dep>0.5 mm were also performed.

[3] = system: patients with non-ST elevation acute coronary syndrome; assay: MERLIN-TIMI 36: arrhythmias on continuous ECG (Holter) recording, first 7 days; format: in vivo, human
Experimental: The safety endpoint data for incidence of clinically significant arrhythmias during 7 day Holter monitoring from MERLIN-TIMI 36 is shown in Table 24 below.
Continuous ECG (Holter) recording was performed for the first 7 days after randomization. Because of the known prolongation of the QT interval with ranolazine, analyses of a prespecified set of arrhythmias were a major objective of the trial. All arrhythmias were evaluated in the TIMI ECG Core Laboratory by cardiologists blinded to treatment and outcomes.
Continuous ECG (cECG or Holter) recording was performed for the first 7 days after randomization. Prespecified arrhythmia analyses were evaluated by a core laboratory blinded to treatment and outcomes.

[4] = system: patients with non-ST elevation acute coronary syndrome; assay: MERLIN-TIMI 36: safety endpoints (death from any cause, symptomatic documented arrhythmias, CV hospitalization); format: in vivo
[5] = system: patients with non-ST elevation ACS; assay: MERLIN-TIMI 36: HbA1c and hyperglycemia; format: in vivo, human
Excerpt: The proportion of patients in the MERLIN-TIMI 36 study with HBA1C ≧7% is shown in Table 28 below (and see FIG. 15).
The proportion of patients with HBA1C ≧7% (with diabetes or no diabetes) at various times during the MERLIN-TIMI 36 study is shown in Table 29 below (and FIG. 16).
HbA1c data are reported as least-square means. Patients categorized as “diabetic” had been diagnosed as diabetic before or at the time of randomization. Patients categorized as “no diabetes” had not been diagnosed as diabetic before or at the time of randomization. Some patients characterized as “no diabetes” may have been diagnosed as “diabetic” during the trial; however, these patients are still listed in the “no diabetes” category in FIG. 4B.

women with NSTE ACS = assay: MERLIN-TIMI 36: outcomes in women with NSTE ACS; format: in vivo, human; details: ranolazine vs placebo
[6] = system: patients with NSTE-ACS who underwent PCI; assay: MERLIN-TIMI 36 post-hoc analysis: VT, CV death and sudden cardiac death after PCI; format: in vivo, human; details: n = 737
Experimental: The incidence of ventricular tachyarrhythmias after percutaneous coronary intervention (PCI) is low, but has been associated with worse clinical outcomes.
The MERLIN-TIMI 36 trial randomized 6560 pts to RAN or placebo (PLA) stratified according to whether an early invasive or conservative medical strategy was planned. The target RAN dose was 1000 mg bid and could be titrated downward at the investigator's discretion. Continuous Holter monitoring was performed for the first 7 days after randomization. Patients (RAN=737, PLA=754) with at least 2 hrs of evaluable Holter data from start of PCI or patients with at least 1 hour of evaluable Holter data if Holter was restarted within 1 hour from start of PCI were included in this post-hoc analysis. The incidence of non-sustained VT episodes (≧100 bpm lasting at least 8 beats but <30 sec) post PCI was compared using Cochran-Mantel-Haenzel test for general association, stratified by intent for early invasive strategy.

[7] = system: patients with non-ST elevation acute coronary syndrome; assay: MERLIN-TIMI 36: arrhythmias on continuous ECG (Holter) recording, first 7 days; format: in vivo, human; details: group allocated to ranolazine
[8] = Baseline (in-hospital visit prior to randomization), all patients dosed n = 3268
[9] = Diabetes at enrollment (n = 1098), Baseline
[10] = Diabetes at enrollment (n = 1098), Final Visit
[11] = Diabetes at enrollment (n = 1098), Month 4
[12] = Diabetes at enrollment (n = 1098), Month 8
[13] = Diabetes at enrollment (n = 1098), Month 16
[14] = Final Visit, all patients dosed n = 3268
[15] = Month 4, all patients dosed n = 3268
[16] = Month 8, all patients dosed n = 3268
[17] = Month 16, all patients dosed n = 3268
[18] = No Diabetes at enrollment (n = 2170), Baseline
[19] = No Diabetes at enrollment (n = 2170), Final Visit
[20] = No Diabetes at enrollment (n = 2170), Month 4
[21] = No Diabetes at enrollment (n = 2170), Month 8
[22] = No Diabetes at enrollment (n = 2170), Month 16
[23] = PCI patients, average follow-up ~1 year
[24] = within 2 hours from start of PCI

COc1ccccc1OCC(O)CN1CCN(CC(=O)Nc2c(C)cccc2C)CC1 (racemic) [Ranolazine, (±)-N-(2,6-dimethylphenyl)-4-[2-hydroxy-3-(2-methoxyphenoxy)-propyl]-1-piperazineacetamide]
SAQ Physical Limitation Scale score, 25th percentile-75th percentile ([1]; N 2339): 55.6-94.4 | SAQ Physical Limitation Scale score, Min-Max ([1]; N 2339): 0-100 | SAQ Anginal Frequency Scale score, 25th percentile-75th percentile ([1]; N 2558): 80-100 | SAQ Anginal Frequency Scale score, Median ([1]; N 2558): 100 | SAQ Anginal Frequency Scale score, Min-Max ([1]; N 2558): 0-100 | RR, CECG events [2]: 0.86 | Supraventricular tachycardia on cECG, no. of patients ([3]; Example 9, patients with valid cECG recording): 1413 | Any clinically significant arrhythmia during 7 day Holter, incidence ([3]; all patients dosed, n = 3268): 71.3% | Any clinically significant arrhythmia during 7 day Holter, no. of pts ([3]; all patients dosed, n = 3268): 2330 | Bradycardic episode during 7 day Holter, incidence ([3]; all patients dosed, n = 3268): 38.5% | Bradycardic episode during 7 day Holter, no. of pts ([3]; all patients dosed, n = 3268): 1257 | New onset atrial fibrillation during 7 day Holter, incidence ([3]; all patients dosed, n = 3268): 1.7% | New onset atrial fibrillation during 7 day Holter, no. of pts ([3]; all patients dosed, n = 3268): 55 | Supraventricular tachycardia (any SVT >=120 bpm) during 7 day Holter, incidence ([3]; all patients dosed, n = 3268): 43.2% | Supraventricular tachycardia (any SVT >=120 bpm) during 7 day Holter, no. of pts ([3]; all patients dosed, n = 3268): 1413 | Ventricular tachycardia (any VT >= 100 bpm >=3 beats) during 7 day Holter, incidence ([3]; all patients dosed, n = 3268): 29.0% | Ventricular tachycardia (any VT >= 100 bpm >=3 beats) during 7 day Holter, no. of pts ([3]; all patients dosed, n = 3268): 948 | Δ in patients with Sustained VT (>=30 sec) ([3]; placebo vs ranolazine): 0 | Δ (%) Polymorphic VT >= 8 beats ([3]; ranolazine vs placebo): −21% | Δ (%) VT ≧ 3 beats (≧100 b/m) ([3]; ranolazine vs placebo): −17% | Δ (%) VT ≧ 4 beats (≧100 b/m) ([3]; ranolazine vs placebo): −30% | Δ (%) VT ≧ 8 beats (<30 sec) ([3]; ranolazine vs placebo): −37% | Death or CV hospitalization endpoint-defining events: CV hospitalization, % of pts with events ([4]; all patients dosed, n = 3268): 89.3% | Death or CV hospitalization endpoint-defining events: CV hospitalization, no. of pts ([4]; all patients dosed, n = 3268): 926 | Death or CV hospitalization endpoint-defining events: Death, % of pts with events ([4]; all patients dosed, n = 3268): 10.7% | Death or CV hospitalization endpoint-defining events: Death, no. of pts ([4]; all patients dosed, n = 3268): 111 | Cardiac arrest NOS, incidence ([4]; human, in vivo): 0.3% | Cardiac arrest NOS, no. of pts ([4]; human, in vivo): 10 | Symptomatic documented arrhythmias - overall, incidence ([4]; human, in vivo): 3.0% | Symptomatic documented arrhythmias - overall, no. of pts ([4]; human, in vivo): 99 | Symptomatic documented bradyarrhythmias, incidence ([4]; human, in vivo): 1.0% | Symptomatic documented bradyarrhythmias, no. of pts ([4]; human, in vivo): 34 | Symptomatic documented supraventricular arrhythmias, incidence ([4]; human, in vivo): 1.2% | Symptomatic documented supraventricular arrhythmias, no. of pts ([4]; human, in vivo): 38 | Symptomatic documented ventricular arrhythmias, incidence ([4]; human, in vivo): 0.7% | Symptomatic documented ventricular arrhythmias, no. of pts ([4]; human, in vivo): 22 | HR, total mortality ([4]; ranolazine vs placebo): 0.99 | Patients with HbA1C ≧7%, no. [5, 8]: 655 | Proportion of patients with HbA1C ≧7% [5, 8]: 24% | Patients with HbA1C ≧7%, no. [5, 9]: 542 | Proportion of patients with HbA1C ≧7% [5, 9]: 57% | Patients with HbA1C ≧7%, no. [5, 10]: 324 | Proportion of patients with HbA1C ≧7% [5, 10]: 42% | Patients with HbA1C ≧7%, no. [5, 11]: 326 | Proportion of patients with HbA1C ≧7% [5, 11]: 41% | Patients with HbA1C ≧7%, no. [5, 12]: 263 | Proportion of patients with HbA1C ≧7% [5, 12]: 44% | Patients with HbA1C ≧7%, no. [5, 13]: 63 | Proportion of patients with HbA1C ≧7% [5, 13]: 48% | Patients with HbA1C ≧7%, no. [5, 14]: 416 | Proportion of patients with HbA1C ≧7% [5, 14]: 17% | Patients with HbA1C ≧7%, no. [5, 15]: 404 | Proportion of patients with HbA1C ≧7% [5, 15]: 17% | Patients with HbA1C ≧7%, no. [5, 16]: 335 | Proportion of patients with HbA1C ≧7% [5, 16]: 18% | Patients with HbA1C ≧7%, no. [5, 17]: 84 | Proportion of patients with HbA1C ≧7% [5, 17]: 20% | Patients with HbA1C ≧7%, no. [5, 18]: 113 | Proportion of patients with HbA1C ≧7% [5, 18]: 6% | Patients with HbA1C ≧7%, no. [5, 19]: 92 | Proportion of patients with HbA1C ≧7% [5, 19]: 6% | Patients with HbA1C ≧7%, no. [5, 20]: 78 | Proportion of patients with HbA1C ≧7% [5, 20]: 5% | Patients with HbA1C ≧7%, no. [5, 21]: 72 | Proportion of patients with HbA1C ≧7% [5, 21]: 6% | Patients with HbA1C ≧7%, no. [5, 22]: 21 | Proportion of patients with HbA1C ≧7% [5, 22]: 7% | HR, worsening angina (women with NSTE ACS): 0.61 | CVD (cardiovascular death) - anytime, incidence [6, 23]: 0.9% | CVD (cardiovascular death) - anytime, no. of patients [6, 23]: 7 | SCD (sudden cardiac death) - anytime, incidence [6, 23]: 0.1% | SCD (sudden cardiac death) - anytime, no. of patients [6, 23]: 1 | CVD (cardiovascular death) - 30 days, incidence ([6]; PCI patients): 0.5% | CVD (cardiovascular death) - 30 days, no. of patients ([6]; PCI patients): 4 | SCD (sudden cardiac death) - 30 days, incidence ([6]; PCI patients): 0.1% | SCD (sudden cardiac death) - 30 days, no. of patients ([6]; PCI patients): 1 | VT ≧ 8 beats, % of patients with at least 1 episode [6, 24]: 1.1% | VT ≧ 8 beats, no. of patients with at least 1 episode [6, 24]: 8 | Clinically reported sudden cardiac death, no. of patients [7]: 56
